Laboratory results from patent US10040798B2, “Pyrrolopyridazine inhibitors of IRAK4 activity” (MERCK SHARP & DOHME CORP., priority 2015, dated 2018).
Counter-ions that a name gives are not always drawn.

These compounds were tested against IRAK4 (Homo sapiens (Human), UniProt Q9NWZ3) (assay: IRAK4 Kinase Assay (IMAP fluorescence polarization)). Settings: 0.5 nM GST tagged IRAK4, 100 μM ATP, 30 minutes at 25° C., IMAP FP.
Format: biochemical
Method in brief: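 GST-tagged IRAK4 (0.5 nM) phosphorylated 100 nM fluorescent peptide RP7030 with 100 μM ATP in 10 mM Tris-HCl pH 7.2, MgCl2, DTT and Tween 20 for 30 min at 25 °C. Phosphorylation was read as the increase in fluorescence polarization after binding to IMAP nanoparticles.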

IRAK4, sequence (Q9NWZ3 whole entry): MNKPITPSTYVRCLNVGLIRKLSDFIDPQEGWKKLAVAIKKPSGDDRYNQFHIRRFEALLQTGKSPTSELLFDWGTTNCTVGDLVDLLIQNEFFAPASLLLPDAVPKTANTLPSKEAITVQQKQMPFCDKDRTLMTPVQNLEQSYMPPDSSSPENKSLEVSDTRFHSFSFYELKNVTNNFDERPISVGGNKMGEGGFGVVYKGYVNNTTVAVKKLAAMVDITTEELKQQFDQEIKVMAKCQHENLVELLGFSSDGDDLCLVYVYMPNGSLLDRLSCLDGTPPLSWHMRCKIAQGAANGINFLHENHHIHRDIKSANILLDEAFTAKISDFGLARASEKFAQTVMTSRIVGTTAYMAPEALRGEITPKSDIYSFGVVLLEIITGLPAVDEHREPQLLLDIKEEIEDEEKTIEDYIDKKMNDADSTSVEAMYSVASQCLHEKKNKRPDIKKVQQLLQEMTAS

First: O=C(Nc1ccccc1Br)c1ccc2ccc(N3CC4CCC3CN4)nn12 (stereo not shown) [Example 61, N-(2-bromophenyl)-2-(2,5-diazabicyclo[2.2.2]oct-2-yl)pyrrolo[1,2-b]pyridazine-7-carboxamide trifluoroacetate]
Second: O=C(Nc1ccccc1Cl)c1ccc2ccc(N3CC4CCC3CN4)nn12 (stereo not shown) [Example 64, N-(2-chlorophenyl)-2-(2,5-diazabicyclo[2.2.2]oct-2-yl)pyrrolo[1,2-b]pyridazine-7-carboxamide trifluoroacetate]
The IC50 of the first is 2.7-fold higher: 1.67 µM for the first, 0.611 µM for the second. The second is the more potent here.

Compared with `O=C(Nc1cscc1Br)c1ccc2ccc(N3CC4CCC3CN4)nn12` (stereo not shown) [Example 62, N-(4-bromothiophen-3-yl)-2-(2,5-diazabicyclo[2.2.2]oct-2-yl)pyrrolo[1,2-b]pyridazine-7-carboxamide trifluoroacetate], `N#Cc1cscc1NC(=O)c1ccc2ccc(N3CC4CCC3CN4)nn12` (stereo not shown) [Example 74, N-(4-cyanothiophen-3-yl)-2-(2,5-diazabicyclo[2.2.2]oct-2-yl)pyrrolo[1,2-b]pyridazine-7-carboxamide trifluoroacetate] is 3.1-fold lower in IC50: 0.415 µM for the first, 0.134 µM for the second.

Going from `N[C@H]1CCCC[C@H]1Nc1ccc2ccc(C(=O)Nc3cscc3Br)n2n1` [Example 63, 2-{[(1R,2S)-2-aminocyclohexyl]amino}-N-(4-bromothiophen-3-yl)pyrrolo[1,2-b]pyridazine-7-carboxamide trifluoroacetate] to `N[C@H]1CCCC[C@H]1Nc1ccc2ccc(C(=O)Nc3cscc3Cl)n2n1` [Example 85, 2-{[(1R,2S)-2-aminocyclohexyl]amino}-N-(4-chlorothiophen-3-yl)pyrrolo[1,2-b]pyridazine-7-carboxamide trifluoroacetate], the IC50 falls from 0.007 µM to 0.002 µM (3.5-fold).

Going from `N[C@H]1CCCC[C@H]1Nc1ccc2ccc(C(=O)Nc3ccccc3Cl)n2n1` [Example 65, 2-{[(1R,2S)-2-aminocyclohexyl]amino}-N-(2-chlorophenyl)pyrrolo[1,2-b]pyridazine-7-carboxamide trifluoroacetate] to `O=C(Nc1ccccc1Cl)c1ccc2ccc(N[C@@H]3CCCC[C@@H]3O)nn12` [Example 93, N-(2-chlorophenyl)-2-{[(1R,2S)-2-hydroxycyclohexyl]amino}pyrrolo[1,2-b]pyridazine-7-carboxamide trifluoroacetate], the IC50 rises from 0.006 µM to 6.84 µM (1100-fold).

Going from `O=C(Nc1ccsc1Cl)c1ccc2ccc(N3CCCNCC3)nn12` [Example 66, N-(2-chlorothiophen-3-yl)-2-(1,4-diazepan-1-yl)pyrrolo[1,2-b]pyridazine-7-carboxamide trifluoroacetate] to `O=C(Nc1ccsc1Br)c1ccc2ccc(N3CCCNCC3)nn12` [Example 76, N-(2-bromothiophen-3-yl)-2-(1,4-diazepan-1-yl)pyrrolo[1,2-b]pyridazine-7-carboxamide trifluoroacetate], the IC50 rises from 0.636 µM to 1.32 µM (2.1-fold). The first is the more potent here.

`N#Cc1sccc1NC(=O)c1ccc2ccc(N3CCCNCC3)nn12` [Example 67, N-(2-cyanothiophen-3-yl)-2-(1,4-diazepan-1-yl)pyrrolo[1,2-b]pyridazine-7-carboxamide trifluoroacetate] and `N#Cc1cscc1NC(=O)c1ccc2ccc(N3CCCNCC3)nn12` [Example 68, N-(4-cyanothiophen-3-yl)-2-(1,4-diazepan-1-yl)pyrrolo[1,2-b]pyridazine-7-carboxamide trifluoroacetate] are within 1.5-fold of each other in IC50: 0.197 µM for the first, 0.19 µM for the second.

First: O=C(Nc1cscc1C(F)F)c1ccc2ccc(N3CCCNCC3)nn12 [Example 69, 2-(1,4-diazepan-1-yl)-N-[4-(difluoromethyl)thiophen-3-yl]pyrrolo[1,2-b]pyridazine-7-carboxamide trifluoroacetate]
Second: O=C(Nc1cscc1Cl)c1ccc2ccc(N3CCCNCC3)nn12 [Example 82, N-(4-chlorothiophen-3-yl)-2-(1,4-diazepan-1-yl)pyrrolo[1,2-b]pyridazine-7-carboxamide trifluoroacetate]
The IC50 of the first is 2-fold lower: 0.151 µM for the first, 0.308 µM for the second.

First: O=C(Nc1ccsc1Cl)c1ccc2ccc(N3CC4CCC3CN4)nn12 (stereo not shown) [Example 70, N-(2-chlorothiophen-3-yl)-2-(2,5-diazabicyclo[2.2.2]oct-2-yl)pyrrolo[1,2-b]pyridazine-7-carboxamide trifluoroacetate]
Second: N[C@H]1CCCC[C@H]1Nc1ccc2ccc(C(=O)Nc3ccsc3Cl)n2n1 [Example 71, 2-{[(1R,2S)-2-aminocyclohexyl]amino}-N-(2-chlorothiophen-3-yl)pyrrolo[1,2-b]pyridazine-7-carboxamide trifluoroacetate]
The IC50 of the first is 110-fold higher: 0.433 µM for the first, 0.004 µM for the second.

First: N[C@H]1CCCC[C@H]1Nc1ccc2ccc(C(=O)Nc3cscc3C(F)F)n2n1 [Example 72, 2-{[(1R,2S)-2-aminocyclohexyl]amino}-N-[4-(difluoromethyl)thiophen-3-yl]pyrrolo[1,2-b]pyridazine-7-carboxamide trifluoroacetate]
Second: N#Cc1cscc1NC(=O)c1ccc2ccc(N[C@@H]3CCCC[C@@H]3N)nn12 [Example 73, 2-{[(1R,2S)-2-aminocyclohexyl]amino}-N-(4-cyanothiophen-3-yl)pyrrolo[1,2-b]pyridazine-7-carboxamide trifluoroacetate]
The IC50 of the first is 8-fold higher: 0.024 µM for the first, 0.003 µM for the second. The second is the more potent here.

Going from `N#Cc1sccc1NC(=O)c1ccc2ccc(N[C@@H]3CCCC[C@@H]3N)nn12` [Example 75, 2-{[(1R,2S)-2-aminocyclohexyl]amino}-N-(2-cyanothiophen-3-yl)pyrrolo[1,2-b]pyridazine-7-carboxamide trifluoroacetate] to `N#Cc1sccc1NC(=O)c1ccc2ccc(N[C@@H]3CCCC[C@@H]3O)nn12` [Example 97, N-(2-cyanothiophen-3-yl)-2-{[(1R,2S)-2-hydroxycyclohexyl]amino}pyrrolo[1,2-b]pyridazine-7-carboxamide trifluoroacetate], the IC50 rises from 0.002 µM to 1.37 µM (680-fold). The first is the more potent here.

Compared with `N[C@H]1CCCC[C@H]1Nc1ccc2ccc(C(=O)Nc3ccsc3Br)n2n1` [Example 77, 2-{[(1R,2S)-2-aminocyclohexyl]amino}-N-(2-bromothiophen-3-yl)pyrrolo[1,2-b]pyridazine-7-carboxamide trifluoroacetate], `N[C@@H]1[C@H](Nc2ccc3ccc(C(=O)Nc4ccsc4Br)n3n2)CCCC1(F)F` [Example 86, 2-{[(1R,2R)-2-amino-3,3-difluoro-cyclohexyl]amino}-N-(2-bromothiophen-3-yl)pyrrolo[1,2-b]pyridazine-7-carboxamide trifluoroacetate] is 480-fold higher in IC50: 0.011 µM for the first, 5.24 µM for the second. The first is the more potent here.

Going from `N[C@@H]1[C@H](Nc2ccc3ccc(C(=O)Nc4cscc4Cl)n3n2)CCCC1(F)F` [Example 87, 2-{[(1R,2R)-2-amino-3,3-difluoro-cyclohexyl]amino}-N-(4-chlorothiophen-3-yl)pyrrolo[1,2-b]pyridazine-7-carboxamide acetate] to `N[C@@H]1[C@H](Nc2ccc3ccc(C(=O)Nc4cscc4Br)n3n2)CCCC1(F)F` [Example 88, 2-{[(1R,2R)-2-amino-3,3-difluoro-cyclohexyl]amino}-N-(4-bromothiophen-3-yl)pyrrolo[1,2-b]pyridazine-7-carboxamide trifluoroacetate], the IC50 rises from 2.17 µM to 6.16 µM (2.8-fold). The first is the more potent here.

Going from `N#Cc1cscc1NC(=O)c1ccc2ccc(N[C@@H]3CCCC(F)(F)[C@@H]3N)nn12` [Example 89, 2-{[(1R,2R)-2-amino-3,3-difluoro-cyclohexyl]amino}-N-(4-cyanothiophen-3-yl)pyrrolo[1,2-b]pyridazine-7-carboxamide trifluoroacetate] to `N[C@@H]1[C@H](Nc2ccc3ccc(C(=O)Nc4cscc4C(F)F)n3n2)CCCC1(F)F` [Example 96, 2-{[(1R,2R)-2-amino-3,3-difluoro-cyclohexyl]amino}-N-[4-(difluoro-methyl)thiophen-3-yl]pyrrolo[1,2-b]pyridazine-7-carboxamide trifluoroacetate], the IC50 rises from 0.342 µM to 0.753 µM (2.2-fold). The first is the more potent here.

First: N[C@@H]1[C@H](Nc2ccc3ccc(C(=O)Nc4ccsc4Cl)n3n2)CCCC1(F)F [Example 90, 2-{[(1R,2R)-2-amino-3,3-difluoro-cyclohexyl]amino}-N-(2-chlorothiophen-3-yl)pyrrolo[1,2-b]pyridazine-7-carboxamide trifluoroacetate]
Second: N#Cc1sccc1NC(=O)c1ccc2ccc(N[C@@H]3CCCC(F)(F)[C@@H]3N)nn12 [Example 98, 2-{[(1R,2R)-2-amino-3,3-difluorocyclohexyl]amino}-N-(2-cyanothiophen-3-yl)pyrrolo[1,2-b]pyridazine-7-carboxamide trifluoroacetate]
The IC50 of the first is 3.7-fold higher: 1.92 µM for the first, 0.526 µM for the second. The second is the more potent here.

`O=C(Nc1ccsc1Cl)c1ccc2ccc(N[C@@H]3CCCC[C@@H]3O)nn12` [Example 91, N-(2-chlorothiophen-3-yl)-2-{[(1R,2S)-2-hydroxycyclohexyl]amino}pyrrolo[1,2-b]pyridazine-7-carboxamide] and `O=C(Nc1ccccc1Br)c1ccc2ccc(N[C@@H]3CCCC[C@@H]3O)nn12` [Example 95, N-(2-bromophenyl)-2-{[(1R,2S)-2-hydroxycyclohexyl]amino}pyrrolo[1,2-b]pyridazine-7-carboxamide trifluoroacetate] are within 1.5-fold of each other in IC50: 6.37 µM for the first, 5.86 µM for the second.

Compared with `N[C@@H]1[C@H](Nc2ccc3ccc(C(=O)Nc4ccccc4Cl)n3n2)CCCC1(F)F` [Example 92, 2-{[(1R,2R)-2-amino-3,3-difluoro-cyclohexyl]amino}-N-(2-chlorophenyl)pyrrolo[1,2-b]pyridazine-7-carboxamide trifluoroacetate], `N[C@@H]1[C@H](Nc2ccc3ccc(C(=O)Nc4ccccc4Br)n3n2)CCCC1(F)F` [Example 94, 2-{[(1R,2R)-2-amino-3,3-difluoro-cyclohexyl]amino}-N-(2-bromophenyl)pyrrolo[1,2-b]pyridazine-7-carboxamide trifluoroacetate] is 2.7-fold higher in IC50: 2.06 µM for the first, 5.63 µM for the second. The first is the more potent here.

Going from `Cn1cc(NC(=O)c2ccc3ccc(N4CCNCC4)nn23)c(C(F)(F)F)n1` [Example 99, N-(1-Methyl-3-(trifluoromethyl)-1H-pyrazol-4-yl)-2-(piperazin-1-yl)pyrrolo[1,2-b]pyridazine-7-carboxamide] to `N#Cc1ccccc1NC(=O)c1ccc2ccc(N3CCCNCC3)nn12` [Example 100, N-(2-Cyanophenyl)-2-(1,4-diazepan-1-yl)pyrrolo[1,2-b]pyridazine-7-carboxamide], the IC50 rises from 0.063 µM to 0.866 µM (14-fold).
